Experimental data published in US10940144B2, “Drug containing pyridylaminoacetic acid compound” (priority 2017, dated 2021).

Legend:
retinal blood vessels = experiment: Pharmacological Test 2: retinal vasodilatory action (retinal vascular diameter) after intravitreal administration of omidenepag isopropyl to rabbits; type: in vivo, rabbit; settings: for Base-Corrected Retinal Vascular Diameter Change Rate (%) 1 Hour After Administration / Base-Corrected Retinal Vascular Diameter Change Rate (%) 2 Hours After Administration / Base-Corrected Retinal Vascular Diameter Change Rate (%) 6 Hours After Administration / Base-Corrected Retinal Vascular Diameter Change Rate (%) 24 Hours After Administration / Base-Corrected Retinal Vascular Diameter Change Rate (%) 48 Hours After Administration: 20 μL intravitreal single injection, pigmented rabbits
Experimental: (a) The fundus images captured immediately before the administration, 1 hour, 2 hours, 6 hours, and 24 hours after the administration were used to measure, as the vascular diameters, (i) the vascular diameter of the retinal artery on the nose side, (ii) the vascular diameter of the retinal artery on the ear side, and (iii) the optic nerve head diameter (longitudinal diameter passing through the center of the optic nerve head).
(b) The average value of (i) the vascular diameter of the retinal artery on the nose side and (ii) the vascular diameter of the retinal artery on the ear side measured from the fundus images for each time period was divided by (iii) the optic nerve head diameter to calculate the corrected retinal vascular diameter. [Corrected Retinal Vascular Diameter]=(([(i) Vascular Diameter of Retinal Artery on Nose Side]+[(ii) Vascular Diameter of Retinal Artery on Ear Side])/2)/([(iii) Optic Nerve Head Diameter])
(c) The ratio of the corrected retinal vascular diameter after passage of each of the time periods of 1 hour, 2 hours, 6 hours, and 24 hours after administration to the corrected retinal vascular diameter immediately before administration (retinal vascular diameter change rate (%)) was calculated. [Retinal Vascular Diameter Change Rate (%) After Passage of Each Time Period After Administration]=[Corrected Retinal Vascular Diameter After Passage of Each Time Period After Administration]/[Corrected Retinal Vascular Diameter Immediately Before Administration]×100
(d) For each time period after administration, the difference (base-corrected retinal vascular diameter change rate (%)) was calculated between the retinal vascular diameter change rate (%) of the group administered with the base simultaneously carried out and the retinal vascular diameter change rate (%) of the groups administered with samples (omidenepag samples 1 and 2, and CP-544326 samples 1 and 2). [Base-Corrected Retinal Vascular Diameter Change Rate (%) After Passage of Each Time Period]=[Retinal Vascular Diameter Change Rate (%) After Passage of Each Time Period After Administration of Samples]−[Retinal Vascular Diameter Change Rate (%) After Passage of Each Time Period After Administration of Base]
(e) The base-corrected retinal vascular diameter change rate (%) of (a) to (d) above was calculated for three experimental animals in each group, and the average thereof was defined as the value of the “base-corrected retinal vascular diameter change rate (%).”
In order to find anew medicinal use of omidenepag, an ester thereof, or a salt thereof, the retinal vasodilatory action in the case of administering omidenepag isopropyl to rabbits was examined.
Omidenepag isopropyl at 3.98 mg was dissolved in dimethyl sulfoxide to a total volume of 118 μL. Of the total volume, 10 μL was added and dissolved into physiological saline, and an appropriate amount of sodium hydroxide solution was added to adjust the pH of the formulation to 6.4. Thereafter, physiological saline was further added to a total volume of 10 mL to obtain omidenepag isopropyl sample 1 (containing 0.00338% (w/v) (33.8 μg/mL) of omidenepag isopropyl). In addition, the base B was added to 0.1 mL of omidenepag isopropyl sample 1 to a total volume of 10 mL, and omidenepag isopropyl sample 2 was obtained (containing 0.0000338% (w/v) (0.338 μg/mL) of omidenepag isopropyl).
In the same method as that in Pharmacological Test 1, the base B and omidenepag isopropyl samples 1 and 2, each at 20 μL, were administered intravitreally (injection, single time) to examine the change in retinal vascular diameter. Note that, 1 hour, 2 hours, 6 hours, 24 hours, and 48 hours after administration of each test compound solution, fundus images of the retinal vascular diameter measuring eyes were captured, and the retinal vascular diameters and the like were measured from the obtained fundus images. […]

[1] = system: optic nerve head tissue blood flow; experiment: Pharmacological Test 4: optic nerve head tissue blood flow (laser speckle flowgraphy) after repeated instillation of omidenepag isopropyl to rabbits; type: in vivo, rabbit; settings: for Base-Corrected Optic Nerve Head Tissue Blood Flow Change Rate (%): 0.002% (w/v) (20 μg/mL), 50 μL instilled once a day for 14 days, rabbit, average of four animals
Experimental: In order to find a new medicinal use of omidenepag, an ester thereof, or a salt thereof, the action of increasing tissue blood flow in the optic nerve head in the case of instilling omidenepag isopropyl to rabbits was examined.
Omidenepag isopropyl, polyoxyl 35 castor oil, glycerin, sodium citrate, sodium edentate, and benzalkonium chloride were added and dissolved into purified water to adjust the pH. Thereafter, purified water was added to adjust the total volume, thereby preparing a 0.002 w/v % omidenepag isopropyl solution (omidenepag isopropyl sample 3).
The base D and omidenepag isopropyl sample 3 as test compound solutions, each at 50 μL, were instilled (ophthalmic solution, once a day, repeated instillation for 14 days) to examine the change in optic nerve head tissue blood flow. In addition, pigmented rabbits (strain: Dutch, sex: male, four animals per group) were used as experimental animals.
1) After holding the above experimental animals, one drop (about 0.03 mL) of a 0.4% tropicamide ophthalmic solution (trade name: Mydrin-M ophthalmic solution 0.4%) was instilled into the optic nerve head tissue blood flow measurement eye to fully dilate the pupil. Thereafter, laser speckle flowgraphy (LSFG-NAVI manufactured by Softcare Co., Ltd.) was used to measure the tissue blood flow in the optic nerve head of the measurement eye.
2) The test compound solutions were instilled at 50 μL into one eye (optic nerve head tissue blood flow measurement eye) of each of the experimental animals once a day for 14 days (the contralateral eye was untreated).
3) At 1 hour and 2 hours after administration of each test compound solution at day 1, day 7, and day 14 after administration of each test compound solution, the optic nerve head tissue blood flow of the optic nerve head tissue blood flow measurement eye was measured.
(a) The ratio of the optic nerve head tissue blood flow after passage of each of the time periods of 1 hour and 2 hours after administration of each test compound solution at day 1, day 7, and day 14 after the start of administration of each test compound solution to the optic nerve head tissue blood flow immediately before administration (optic nerve head tissue blood flow change rate (%)) was calculated. [Optic Nerve Head Tissue Blood Flow Change Rate (%) After Passage of Each Time Period After Administration]=[Optic Nerve Head Tissue Blood Flow After Passage of Each Time Period After Administration]/[Optic Nerve Head Tissue Blood Flow Immediately Before Administration]×100
(b) For each time period after administration, the difference (base-corrected optic nerve head tissue blood flow change rate (%)) was calculated between the optic nerve head tissue blood flow change rate (%) of the group administered with the base D simultaneously carried out and the optic nerve head tissue blood flow change rate (%) of the group administered with omidenepag isopropyl sample 3. [Base-Corrected Optic Nerve Head Tissue Blood Flow Change Rate (%) After Passage of Each Time Period]=[Optic Nerve Head Tissue Blood Flow Change Rate (%) After Passage of Each Time Period After Administration of Omidenepag Isopropyl Sample 3]−[Optic Nerve Head Tissue Blood Flow Change Rate (%) After Passage of Each Time Period After Administration of Base D]
(c) The base-corrected optic nerve head tissue blood flow change rate (%) of (a) and (b) above was calculated for four experimental animals in each group, and the average thereof was defined as the value of the “base-corrected optic nerve head tissue blood flow change rate (%).”

CC(C)OC(=O)CNc1cccc(CN(Cc2ccc(-n3cccn3)cc2)S(=O)(=O)c2cccnc2)n1 [Omidenepag Isopropyl, isopropyl (6-{[4-(pyrazol-1-yl)benzyl](pyridin-3-ylsulfonyl)aminomethyl}pyridin-2-ylamino)acetate]
Base-Corrected Retinal Vascular Diameter Change Rate (%) 1 Hour After Administration (retinal blood vessels; 0.0000338% (w/v) (0.338 μg/mL)): 25.1% | Base-Corrected Retinal Vascular Diameter Change Rate (%) 2 Hours After Administration (retinal blood vessels; 0.0000338% (w/v) (0.338 μg/mL)): 34.5% | Base-Corrected Retinal Vascular Diameter Change Rate (%) 6 Hours After Administration (retinal blood vessels; 0.0000338% (w/v) (0.338 μg/mL)): 18.4% | Base-Corrected Retinal Vascular Diameter Change Rate (%) 24 Hours After Administration (retinal blood vessels; 0.0000338% (w/v) (0.338 μg/mL)): 6.8% | Base-Corrected Retinal Vascular Diameter Change Rate (%) 48 Hours After Administration (retinal blood vessels; 0.0000338% (w/v) (0.338 μg/mL)): 1.7% | Base-Corrected Retinal Vascular Diameter Change Rate (%) 1 Hour After Administration (retinal blood vessels; 0.00338% (w/v) (33.8 μg/mL)): 58.4% | Base-Corrected Retinal Vascular Diameter Change Rate (%) 2 Hours After Administration (retinal blood vessels; 0.00338% (w/v) (33.8 μg/mL)): 81.7% | Base-Corrected Retinal Vascular Diameter Change Rate (%) 6 Hours After Administration (retinal blood vessels; 0.00338% (w/v) (33.8 μg/mL)): 73.8% | Base-Corrected Retinal Vascular Diameter Change Rate (%) 24 Hours After Administration (retinal blood vessels; 0.00338% (w/v) (33.8 μg/mL)): 16.0% | Base-Corrected Retinal Vascular Diameter Change Rate (%) 48 Hours After Administration (retinal blood vessels; 0.00338% (w/v) (33.8 μg/mL)): 0.0% | durability of retinal vasodilatory action compared with omidenepag (in words) (retinal blood vessels; both 65.0 μM, 24 hours after intravitreal administration, rabbits): amore durable action than omidenepag | retinal vasodilatory action (in words) (retinal blood vessels; intravitreal, rabbits): significantly strong retinal vasodilatory action | blood flow increasing action, optic nerve head (in words) ([1]; 0.002 w/v % solution, 50 μL instillation once a day for 14 days, rabbits): good blood flow increasing action | Base-Corrected Optic Nerve Head Tissue Blood Flow Change Rate (%) ([1]; Day 1, 1 hour after administration): 7.2% | Base-Corrected Optic Nerve Head Tissue Blood Flow Change Rate (%) ([1]; Day 1, 2 hours after administration): 6.3% | Base-Corrected Optic Nerve Head Tissue Blood Flow Change Rate (%) ([1]; Day 7, 1 hour after administration): 9.9% | Base-Corrected Optic Nerve Head Tissue Blood Flow Change Rate (%) ([1]; Day 7, 2 hours after administration): 12.4% | Base-Corrected Optic Nerve Head Tissue Blood Flow Change Rate (%) ([1]; Day 14, 1 hour after administration): 13.6% | Base-Corrected Optic Nerve Head Tissue Blood Flow Change Rate (%) ([1]; Day 14, 2 hours after administration): 11.5%
